Among the data in US10487088B2, “Tricyclic compound serving as immunomodulator” (Chia Tai Tianqing Pharmaceutical Group Co., Ltd., priority 2016, dated 2019) are IC50 values, retold here.

T1 sequence (P14902 whole entry): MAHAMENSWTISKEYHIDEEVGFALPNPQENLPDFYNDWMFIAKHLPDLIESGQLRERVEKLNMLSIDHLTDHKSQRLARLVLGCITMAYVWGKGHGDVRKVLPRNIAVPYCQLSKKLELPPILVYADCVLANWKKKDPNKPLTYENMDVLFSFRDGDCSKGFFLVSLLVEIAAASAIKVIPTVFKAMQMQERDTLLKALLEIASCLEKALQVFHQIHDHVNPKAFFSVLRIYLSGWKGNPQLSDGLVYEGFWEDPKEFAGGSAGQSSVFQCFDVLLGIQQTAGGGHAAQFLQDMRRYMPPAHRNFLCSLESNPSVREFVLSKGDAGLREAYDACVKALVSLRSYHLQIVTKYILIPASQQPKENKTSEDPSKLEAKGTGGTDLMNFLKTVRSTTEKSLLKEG

This assay concerns the target T1, recombinant human IDO1 enzyme (Homo sapiens, UniProt P14902).
T1 construct: purchased NTRC NTRC-hlDO-10K
As to the kind of experiment: In vitro hIDO1 enzyme activity test (NFK Green fluorescence). The assay is classed as biochemical. To be noted: recombinant human IDO1, L-tryptophan substrate, pH 6.5. The method, then:
The change of NFK production was detected by using the NFK Green™ fluorescent molecule, which is the metabolite of the IDO1 enzyme, and the IC50 value of the compound was used as an index, to evaluate the inhibitory effect of the compound on the recombinant human IDO1 enzyme.
IDO1 Enzyme Activity Assay Kit, NTRC # NTRC-hlDO-10K;
The compound was diluted to 1 mM in DMSO, and then diluted 3-fold in duplicate wells, with 10 gradients. 48 μL of 50 mM phosphate buffer (pH 6.5) was transferred to the compound plate via Bravo automated liquid handling platform. 2 μL of the diluted solution of the compound in DMSO was then added and mixed, followed by transferring 10 μL therein to an enzyme reaction plate.
The IDO1 enzyme was diluted to 20 nM in the reaction buffer (50 mM phosphate buffer pH 6.5, 0.1% Tween-20, 2% glycerol, 20 mM ascorbic acid, 20 μg/mL catalase and 20 μM methylene blue), and 20 μL of the solution was transferred to an enzyme reaction plate and incubated at 23° C. for 30 min. The reaction was started by adding 10 μL of 400 μM L-type tryptophan substrate and incubated at 23° C. for 90 min. 10 μL of NFK Green™ fluorescent dye was added, and the plate was sealed with the sealing film, incubated at 37° C. for 4 h, and then read on Envision Multimode Plate Reader (Ex 400 nm/Em 510 nm).
The control wells with the IDO1 enzyme but no compound was set as 0% inhibition, and the control wells without the IDO1 enzyme was set as 100% inhibition, and the IC50 value of the compound was calculated by analyzing the data with XLFit 5.
For `OC1CC(C2c3sccc3-c3cncn32)C1` (single isomer, unassigned) [Example 61, 3-(8H-thieno[3,4]pyrrolo[1,5-a]imidazol-8-yl)cyclobutanol], the IC50 (commonly the concentration at which inhibition is half-maximal) is 1.2 µM.

`OC1CCCC(C2c3sccc3-c3cncn32)C1` (single isomer, unassigned) [Example 64, 3-(8H-thieno[3′,2′:3,4]pyrrolo[1,2-c]imidazol-8-yl)cyclohexanol]: the IC50 is > 10 µM.

Take `OC1CCCC(C2c3sccc3-c3cncn32)C1` (single isomer, unassigned) [Example 65, 3-(8H-thieno[3′,2′:3,4]pyrrolo[1,2-c]imidazol-8-yl)cyclohexanol]: the 50% inhibitory concentration (IC50) was found to be 5.53 µM.

With `OC1CCCC(C2c3sccc3-c3cncn32)C1` (single isomer, unassigned) [Example 66, 3-(8H-thieno[3′,2′:3,4]pyrrolo[1,2-c]imidazol-8-yl)cyclohexanol], the concentration for half-maximal inhibition (IC50) is > 10 µM.

With `OC1CCCC(C2c3sccc3-c3cncn32)C1` (single isomer, unassigned) [Example 67, 3-(8H-thieno[3′,2′:3,4]pyrrolo[1,2-c]imidazol-8-yl)cyclohexanol], the half-maximal inhibitory concentration (IC50) stood at 0.162 µM.

`OC1CCCC(C2c3sccc3-c3cncn32)C1` (single isomer, unassigned) [Example 68, 3-(8H-thieno[3′,2′:3,4]pyrrolo[1,2-c]imidazol-8-yl)cyclohexanol]: the IC50 came to 1.83 µM.

For the compound `OC1CCCC(C2c3sccc3-c3cncn32)C1` (single isomer, unassigned) [Example 69, 3-(8H-thieno[3′,2′:3,4]pyrrolo[1,2-c]imidazol-8-yl)cyclohexanol], the IC50 came to 2.32 µM.

With `OC1CCCC(C2c3sccc3-c3cncn32)C1` (single isomer, unassigned) [Example 70, 3-(8H-thieno[3′,2′:3,4]pyrrolo[1,2-c]imidazol-8-yl)cyclohexanol], the IC50 came out at 1.09 µM.

As to `OC1CCCC(C2c3sccc3-c3cncn32)C1` (single isomer, unassigned) [Example 71, 3-(8H-thieno[3′,2′:3,4]pyrrolo[1,2-c]imidazol-8-yl)cyclohexanol], the IC50 was > 10 µM.

In the case of `c1cc2c(s1)C(C1CCCC1)n1cncc1-2` (single isomer, unassigned) [Example 74, 8-cyclopentyl-8H-thieno[3,4]pyrrolo[1,5-a]imidazole], the IC50 was found to be 0.257 µM.

Turning to `c1cc2c(s1)C(C1CCCC1)n1cncc1-2` (single isomer, unassigned) [Example 75, 8-cyclopentyl-8H-thieno[3,4]pyrrolo[1,5-a]imidazole], the IC50 was > 10 µM.

For `FC1(F)[C@@H]2C[C@H](C3c4sccc4-c4cncn43)C[C@@H]21` (single isomer, unassigned) [Example 76, 8-(6,6-difluoro-3-bicyclo[3.1.0]cyclohexyl)-8H-thieno[3,4]pyrrolo[1,5-a]imidazole (cis)], the IC50 came out at 0.883 µM.

As for `CC1(C)CC(C2c3sccc3-c3cncn32)CCO1` (single isomer, unassigned) [Example 78, 8-(2,2-dimethyltetrahydropyran-4-yl)-8H-thieno[3,4]pyrrolo[1,5-a]imidazole], the IC50 is > 10 µM.

Take `CC1(C)CC(C2c3sccc3-c3cncn32)CCO1` (single isomer, unassigned) [Example 79, 8-(2,2-dimethyltetrahydropyran-4-yl)-8H-thieno[3,4]pyrrolo[1,5-a]imidazole]: the IC50 is > 10 µM.

As for `CC1(C)CC(C2c3sccc3-c3cncn32)CCO1` (single isomer, unassigned) [Example 80, 8-(2,2-dimethyltetrahydropyran-4-yl)-8H-thieno[3,4]pyrrolo[1,5-a]imidazole], the IC50 came out at 5.05 µM.

On to `CC1(C)CC(C2c3sccc3-c3cncn32)CCO1` (single isomer, unassigned) [Example 81, 8-(2,2-dimethyltetrahydropyran-4-yl)-8H-thieno[3,4]pyrrolo[1,5-a]imidazole], for which the IC50 was found to be 8.27 µM.

Turning to `OC1CCCCC1C1c2sccc2-c2cncn21` (single isomer, unassigned) [Example 82], the IC50 came to 1.55 µM.

`OC1CCCCC1C1c2sccc2-c2cncn21` (single isomer, unassigned) [Example 83]: the IC50 was 1.27 µM.

Consider `OC1CCCCC1C1c2sccc2-c2cncn21` (single isomer, unassigned) [Example 84], for which the IC50 came to 0.454 µM.

As to `c1ccc(N2CCC(C3c4sccc4-c4cncn43)CC2)cc1` (single isomer, unassigned) [Example 86, 8-(1-phenylpiperidin-4-yl)-8H-thieno[3′,2′:3,4]pyrrolo[1,2-c]imidazole], the IC50 came to 0.545 µM.

Turning to `c1ccc(N2CCC(C3c4sccc4-c4cncn43)CC2)cc1` (single isomer, unassigned) [Example 87, 8-(1-phenylpiperidin-4-yl)-8H-thieno[3′,2′:3,4]pyrrolo[1,2-c]imidazole], the concentration for half-maximal inhibition (IC50) is > 10 µM.

With `c1ccc(C2CCC(C3c4sccc4-c4cncn43)CC2)cc1` (single isomer, unassigned) [Example 88, 8-(4-phenylcyclohexyl)-8H-thieno[3′,2′:3,4]pyrrolo[1,2-c]imidazole], the IC50 is 0.478 µM.

Take `c1ccc(C2CCC(C3c4sccc4-c4cncn43)CC2)cc1` (single isomer, unassigned) [Example 89, 8-(4-phenylcyclohexyl)-8H-thieno[3′,2′:3,4]pyrrolo[1,2-c]imidazole]: the IC50 was > 10 µM.

On to `Cc1cc2c(s1)C(C1CCCCC1)n1cncc1-2` (single isomer, unassigned) [Example 90, 8-cyclohexyl-2-dimethyl-8H-thieno[3′,2′:3,4]pyrrolo[1,2-c]imidazole], for which the IC50 is > 10 µM.

`Cc1cc2c(s1)C(C1CCCCC1)n1cncc1-2` (single isomer, unassigned) [Example 91, 8-cyclohexyl-2-dimethyl-8H-thieno[3′,2′:3,4]pyrrolo[1,2-c]imidazole]: the IC50 was 6.75 µM.

Take `c1ccc2c(C3CCC(C4c5sccc5-c5cncn54)CC3)ccnc2c1` (single isomer, unassigned) [Example 92, 5-(4-(quinolin-4-yl)cyclohexyl)-8H-thieno[3′,2′:3,4]pyrrolo[1,2-c]imidazole]: the IC50 came to 0.686 µM.

For `c1ccc2c(C3CCC(C4c5sccc5-c5cncn54)CC3)ccnc2c1` (single isomer, unassigned) [Example 93, 5-(4-(quinolin-4-yl)cyclohexyl)-8H-thieno[3′,2′:3,4]pyrrolo[1,2-c]imidazole], the IC50 is > 10 µM.

On to `c1ccc2c(C3CCC(C4c5sccc5-c5cncn54)CC3)ccnc2c1` (single isomer, unassigned) [Example 94, 5-(4-(quinolin-4-yl)cyclohexyl)-8H-thieno[3′,2′:3,4]pyrrolo[1,2-c]imidazole], for which the IC50 worked out at 1.46 µM.

For `c1ccc2c(C3CCC(C4c5sccc5-c5cncn54)CC3)ccnc2c1` (single isomer, unassigned) [Example 95, 5-(4-(quinolin-4-yl)cyclohexyl)-8H-thieno[3′,2′:3,4]pyrrolo[1,2-c]imidazole], the half-inhibitory concentration (IC50) is > 10 µM.

`O=C(O)C1CCCC(C2c3sccc3-c3cncn32)C1` (single isomer, unassigned) [Example 97, 3-(8H-thieno[3,4]pyrrolo[1,5-a]imidazol-8-yl) cyclohexylcarboxylic acid]: the IC50 was > 10 µM.

Take `O=C(O)C1CCCC(C2c3sccc3-c3cncn32)C1` (single isomer, unassigned) [Example 98, 3-(8H-thieno[3,4]pyrrolo[1,5-a]imidazol-8-yl) cyclohexylcarboxylic acid]: the IC50 was > 10 µM.

Regarding `O=C(O)C1CCCC(C2c3sccc3-c3cncn32)C1` (single isomer, unassigned) [Example 99, 3-(8H-thieno[3,4]pyrrolo[1,5-a]imidazol-8-yl) cyclohexylcarboxylic acid], the IC50 is > 10 µM.

With `O=C(O)C1CCCC(C2c3sccc3-c3cncn32)C1` (single isomer, unassigned) [Example 100, 3-(8H-thieno[3,4]pyrrolo[1,5-a]imidazol-8-yl) cyclohexylcarboxylic acid], the IC50 worked out at 6.77 µM.

`O=C(O)C1CCCC(C2c3sccc3-c3cncn32)C1` (single isomer, unassigned) [Example 101, 3-(8H-thieno[3,4]pyrrolo[1,5-a]imidazol-8-yl) cyclohexylcarboxylic acid]: the IC50 was > 10 µM.

Take `O=C(O)C1CCCC(C2c3sccc3-c3cncn32)C1` (single isomer, unassigned) [Example 102, 3-(8H-thieno[3,4]pyrrolo[1,5-a]imidazol-8-yl) cyclohexylcarboxylic acid]: the IC50 is > 10 µM.

For the compound `O=C(O)C1CCCC(C2c3sccc3-c3cncn32)C1` (single isomer, unassigned) [Example 103, 3-(8H-thieno[3,4]pyrrolo[1,5-a]imidazol-8-yl) cyclohexylcarboxylic acid], the IC50 is > 10 µM.

Turning to `O=C(O)C1CCCC(C2c3sccc3-c3cncn32)C1` (single isomer, unassigned) [Example 104, 3-(8H-thieno[3,4]pyrrolo[1,5-a]imidazol-8-yl) cyclohexylcarboxylic acid], the IC50 was > 10 µM.
